Patent US9657046B2, “Methods for the treatment and prevention of inflammatory diseases” (Children's Medical Center Corporation, priority 2010, dated 2017)

Columns and labels:
BALB/c mice = test: OVA-induced AHR in adult mice treated with glycolipid at 2 weeks of age; type: in vivo, mouse; details: 2 wk old mice treated i.p. (α-C-GalCer 5 μg, α-GalCer 2 μg, PI57 50 or 100 μg, PBS30 50 μg); AHR induced 6 wks (42 days) later
Description: In FIGS. 6A-6B, two-week-old BALB/c mice (n=6-8/group) (6A) or Tbet^−/− mice (6B) (n=4-6 per group) received 5 μg […] (cGal), 2 μg α-GalCer, or vehicle. After OVA sensitization and challenge, AHR was measured on day 44. In FIG. 6C, donor mice were treated with α-C-GalCer (5 μg) or vehicle i.p. NKT cells served as donors, as in FIG. 4A (n=4 per group). Lung resistance (left) and cell counts in BAL (right) were assessed. […] In FIG. 6E, mice received PI57 (50 μg), α-GalCer (2 μg), or vehicle i.p., and lungs were examined 1 or 14 days later for CD4 and CD8 expression. In FIG. 6F, absolute numbers of CD4^+ NKT and DN NKT subsets from 6E were assessed. In FIG. 6G, BALB/c mice (n=5-8/group) received PI57 or vehicle i.p. Lung resistance (left) and BAL cells (right) were assessed. In FIG. 6H, BALB/c mice treated with PI57 (50 μg), PBS30 (Sphingomonas glycolipid) (50 μg), or vehicle i.p. were assessed for AHR as in 6G. In FIG. 6I, donor mice were treated with PI57 (50 μg) or vehicle i.p. NKT cells served as donors as in FIG. 4A. Lung resistance (left) and BAL cells (right) were assessed (n=4 per group). […] Data represent 2-3 independent experiments. *P<0.05, #P<0.05, ***P<0.001 versus vehicle-OVA (6C, 6G, and 6I), DN NKT saline (6F), and CD4^+ NKT saline (6F).
Induction of AHR and measurement of airway responsiveness in the OVA model.
To induce AHR, BALB/c mice were sensitized with 100 μg of OVA (Sigma-Aldrich) in alum administered i.p (on day 0). After sensitization, mice were exposed to intranasal antigen (50 μg OVA/day) or normal saline for 1 day (day 7; single dose challenge protocol), or for 3 consecutive days (days 7, 8, 9). AHR was assessed on the day after last OVA-challenge. Control mice received i.p. injection of PBS and intranasal administrations of normal saline.

human NKT cell lines = test: Human NKT cell lines, IFN-γ and IL-4 production; type: cell-based; details: PI57 10 μg/ml, 48 hours in vitro
Description: (§1) In FIG. 7A, NKT cell lines were cocultured with BM-derived DCs (BMDCs) and α-GalCer (100 ng/ml), PI57 (10 μg/ml), or vehicle for 48 hours, with or without pre-incubation with anti-CD1d (10 μg/ml). IFN-γ was measured by ELISA. In FIG. 7B, murine NKT cell lines were cocultured as in 7A with BMDCs from WT, Cd1d^−/−, Myd88^−/−, or Trif^−/− mice. Cells were treated with α-GalCer (100 ng/ml), PI57 (2.5, 5, or 10 μg/ml), PBS30 (1, 2.5, or 5 μg/ml), or vehicle for 48 hours. IFN-γ and IL-4 were measured by ELISA. […] In FIG. 7D, mouse NKT cell lines were stained with PE-labeled CD1d tetramers of PI57 or α-GalCer at 4° C. for 45 minutes or 37° C. for 25 minutes, and with anti-TCRβ-APC antibody. Top: Lymphocytes were gated in the FSC/SSC window. Bottom: Percentage of CD1d tetramer+ cells. […] In FIG. 7G, CD1d Fc-coated Maxisorp plates were loaded with lipid and cultured with 5×10^4 NKT cells. IFN-γ was analyzed by ELISA after 24 hours. Data represent 3 or 5 independent experiments.
Human NKT cells were isolated from peripheral blood of normal volunteers, using a PE-conjugated anti-human NKT cell antibody (clone 6B11, which recognizes the CDR3 loop of the conserved Vα24 TCR found on iNKT cells) (BD Pharmingen) and anti-PE MACS beads (Miltenyi Biotec). Cells retained on the MACS column were then eluted. […]
Mouse or human IL-4 and IFN-γ levels were measured by ELISA, as previously described (20). […]

NKT cell clone BM2a.3 = test: Human NKT cell clone BM2a.3 with CD1d-transfected cells, IFN-γ; type: cell-based
Description: as §1
CD1d transfected K562 cells and CD1d restricted human NKT cell clone BM2a.3 were previously described (62). The anti-CD1d antibody (clone 12.1.1.1) experiments have been performed as described (63).

BM2a.3 cells = test: Human NKT cell clone on CD1d Fc-coated plates loaded with lipid, IFN-γ ELISA; type: cell-based; details: 5×10^4 NKT cells, 24 hours
Description: In FIG. 7A, NKT cell lines were cocultured with BM-derived DCs (BMDCs) and α-GalCer (100 ng/ml), PI57 (10 μg/ml), or vehicle for 48 hours, with or without pre-incubation with anti-CD1d (10 μg/ml). IFN-γ was measured by ELISA. In FIG. 7B, murine NKT cell lines were cocultured as in 7A with BMDCs from WT, Cd1d^−/−, Myd88^−/−, or Trif^−/− mice. Cells were treated with α-GalCer (100 ng/ml), PI57 (2.5, 5, or 10 μg/ml), PBS30 (1, 2.5, or 5 μg/ml), or vehicle for 48 hours. IFN-γ and IL-4 were measured by ELISA. […] In FIG. 7D, mouse NKT cell lines were stained with PE-labeled CD1d tetramers of PI57 or α-GalCer at 4° C. for 45 minutes or 37° C. for 25 minutes, and with anti-TCRβ-APC antibody. Top: Lymphocytes were gated in the FSC/SSC window. Bottom: Percentage of CD1d tetramer+ cells. […] IFN-γ was analyzed by ELISA after 24 hours. […]
Maxisorp plates (Nunc) were coated with PBS diluted recombinant human CD1d/β2 microglobulin Fc fusion proteins (0.5 μg/well; kindly provided by Dr. Jenny Gumperz (64) and anti-LFA-1 antibodies (0.05 μg/well, AbD Serotec) overnight at 4° C. After washing with PBS, immobilized CD1d was loaded with sonicated lipid antigens diluted in 25% DMSO/dH2O by overnight incubation at 37° C. After washing with PBS and culture media, NKT cells were added (5×10^4 cells/well) and culture supernatants were analyzed for IFN-γ by ELISA after overnight culture at 37° C.

adult mice = test: Ozone-exposure model, pre-treatment of adult mice; type: in vivo, mouse; details: pre-treatment prior to ozone-exposure

SMILES: CCCCCCCCCCCCCC(=O)OC[C@H]1O[C@H](O[C@H]2CC[C@@]3(C)C(=CC[C@H]4[C@@H]5CC[C@H]([C@H](C)CCCC(C)C)[C@@]5(C)CC[C@@H]43)C2)[C@H](O)[C@@H](O)[C@@H]1O [PI57, Cholesteryl 6-O-tetradecanoyl-α-D-glucopyranoside]
- protection against development of OVA-induced AHR (lung resistance) (BALB/c mice): protected the mice from the development of OVA-induced AHR
- activation of human NKT cell lines (IFN-γ and IL-4 production) (human NKT cell lines): activated
- response (IFN-γ production) of Vα24+ NKT cell clone BM2a.3 (NKT cell clone BM2a.3): responded to this glycolipid
- IFN-γ induced by plate bound CD1d loaded with glycolipid (BM2a.3 cells): induced IFN-γ in BM2a.3 cells
- airway hyperreactivity after ozone exposure (adult mice): inhibit or suppress airway hyperreactivity
- lung inflammation after ozone exposure (adult mice): inhibit or suppress airway hyperreactivity and lung inflammation
